Laboratory results taken from article PMC4994406, “Molecular cloning and characterization of a flavonoid-O-methyltransferase with broad substrate specificity and regioselectivity from Citrus depressa” (BMC Plant Biology, 2016).

Assays:
[1] = biological target: T1, CdFOMT5 (Citrus depressa, UniProt A0A125T1T5); experiment: HPLC of methylated product; format: biochemical; settings: 500 uM SAM, 100 uM substrate, 50 mM potassium phosphate pH 7.0, 30 °C, 1 h
T1 construct: gene FOMT5; full-length cDNA from fruit pericarp, C-terminal 6x His tag kept, pET21b(+) BamHI/SalI, E. coli BL21(DE3), Ni-Sepharose
T1 sequence (A0A125T1T5 1-353): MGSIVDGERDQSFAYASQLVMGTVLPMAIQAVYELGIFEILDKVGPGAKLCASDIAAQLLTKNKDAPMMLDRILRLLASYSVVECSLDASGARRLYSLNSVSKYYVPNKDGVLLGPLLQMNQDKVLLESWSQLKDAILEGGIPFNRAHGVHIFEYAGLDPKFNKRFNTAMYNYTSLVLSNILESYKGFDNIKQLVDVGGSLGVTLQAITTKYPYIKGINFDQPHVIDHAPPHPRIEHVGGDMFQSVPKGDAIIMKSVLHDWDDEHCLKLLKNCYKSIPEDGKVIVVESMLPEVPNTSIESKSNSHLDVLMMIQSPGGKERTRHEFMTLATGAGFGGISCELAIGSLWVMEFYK

[2] = biological target: T1, CdFOMT5; experiment: HPLC and LC-MS of O-methylated products; format: biochemical; settings: 500 uM SAM, 100 uM substrate, 50 mM potassium phosphate pH 7.0, 30 °C, 1 h

Row | Structure (SMILES) | HPLC of methylated product [1] | HPLC and LC-MS of O-methylated products [2]
1 | O=c1c(O)c(-c2ccccc2)oc2ccccc12 [3-hydroxyflavone] | the highest activity was observed for 3-hydroxyflavone (flavonol) based on the peak area | 
2 | O=c1c(O)c(-c2ccc(O)c(O)c2)oc2cc(O)cc(O)c12 [S, quercetin] |  | several peaks corresponding to O-methylated products were detected by HPLC analysis
